Assay results from PMC9327782, “Benzoxazole derivatives as new VEGFR-2 inhibitors and apoptosis inducers: design, synthesis, in silico studies, and antiproliferative evaluation” (Journal of Enzyme Inhibition and Medicinal Chemistry, 2022).
Where two headings read alike, the source gives them in different places.

What was measured:
VEGFR-2 = biological target: T1, VEGFR-2 (Homo sapiens, UniProt P35968); assay: In vitro VEGFR-2 kinase assay (ELISA kit); assay type: biochemical; conditions: for IC50: ELISA kit; for HillSlope best-fit value, VEGFR-2 / LogIC50 best-fit value, VEGFR-2: supplement raw data, curve fit
T1 construct: purchased
Experimental: The assay was applied by ELISA kits in accordance with the comprehensive description in[18]^,[33] as described in Supplementary data. […]
2. In vitro VEGFR-2 kinase assay
All the synthesized compounds were tested for its inhibitory activity against VEGFR-2. Human VEGFR-2 ELISA kit (Enzyme-Linked Immunosorbent Assay) was utilized in this test. At first, specific antibody for VEGFR-2 was seeded on a 96-well plate and 100 μL of the standard solution or the tested compound was added, all were incubated at room temperature for 2.5 h. Then washed, 100 μL of the prepared biotin antibody was added, then incubated at room temperature for additional 1 h. and washed. Then, 100 μL of streptavidin solution was added and incubated for 45 min. at room temperature. Washed again, 100 μL of TMB Substrate reagent was added and incubated for 30 min. at room temperature. 50 μL of the stop solution was added, then read at 450 […]
nm immediately. […]

MCF-7 cell line = assay: In vitro anti-proliferative MTT assay, MCF-7; assay type: cell-based, human
Text: (§1) The cytotoxicity results were obtained as median growth inhibitory concentration (IC50).
(§2) MTT assay protocol. This method was applied in accordance with the comprehensive description in Supplementary data. […]
(§3) 5 Raw data of cytotoxity and VEGFR -2 assay […]
(§4) Experimental of biological testing
(§5) 1. In vitro anti-proliferative activity
(§6) MTT assay protocol was applied to assess the anti-proliferative activity of the synthesized compounds. Two human cancer cell lines (MCF-7 and HepG-2) and one normal cell line (WI-38) were used in this test. At first, the cell lines were cultured in RPMI -1640 medium with 10% fetal bovine serum. Antibiotics (100 units/ml penicillin and100 µg/ml streptomycin ) were added at 37 °C in a 5% CO2 incubator. The cell lines were seeded in a 96-well plate at a density of 1.0 x 10^4 cells / well at 37 °C for 24 h under 5% CO2. After incubation, the cells were treated with different […]
(§7) concentration of the synthesized compounds and incubated for 24 h. After 24 h of drug treatment, 20 µl of MTT solution at 5mg/ml was added and incubated for 4 h. Dimethyl sulfoxide (DMSO) in volume of 100 µl was added into each well to dissolve the purple formazan formed. The colorimetric assay was measured and recorded at absorbance of 570 nm using a plate reader (EXL 800, USA). The relative cell viability in percentage was calculated as (A570 of treated samples/A570 of untreated sample) X 100. […]

HepG2 cell line = assay: In vitro anti-proliferative MTT assay, HepG2; assay type: cell-based, human
Text: as §1, §2, §3, §4, §5, §6, §7

WI-38 cell line = assay: In vitro cytotoxicity against normal cell line (MTT); assay type: cell-based, human; parameters: LogIC50 best-fit value, WI-38: unit not given here; conditions: for IC50: WI-38, normal human lung cell line, MTT; for HillSlope best-fit value, WI-38 / LogIC50 best-fit value, WI-38: supplement raw data, dose-response curve fit
Text: […]. Such values were very high in comparison to the corresponding values on cancer cell lines, which reflect high safety profile of the tested candidates towards normal cell lines.
as §2, §3, §4, §5, §6, §7

[1] = Homo sapiens, MCF7, 24 h, MTT, 24 h treatment, mean of three experiments, read-out: In vitro IC50 MCF-7
[2] = Homo sapiens, MCF7, supplement raw data, dose-response curve fit, read-out: LogIC50 best-fit value, MCF-7 (converted)
[3] = Homo sapiens, HepG2, 24 h, MTT, 24 h treatment, mean of three experiments, read-out: In vitro IC50 HepG2
[4] = Homo sapiens, HepG2, supplement raw data, dose-response curve fit, read-out: LogIC50 best-fit value, HepG2 (converted)
[5] = Homo sapiens, HepG2, supplement raw data, dose-response curve fit, read-out: IC50 best-fit value, HepG2

T1 sequence (P35968 20-1356): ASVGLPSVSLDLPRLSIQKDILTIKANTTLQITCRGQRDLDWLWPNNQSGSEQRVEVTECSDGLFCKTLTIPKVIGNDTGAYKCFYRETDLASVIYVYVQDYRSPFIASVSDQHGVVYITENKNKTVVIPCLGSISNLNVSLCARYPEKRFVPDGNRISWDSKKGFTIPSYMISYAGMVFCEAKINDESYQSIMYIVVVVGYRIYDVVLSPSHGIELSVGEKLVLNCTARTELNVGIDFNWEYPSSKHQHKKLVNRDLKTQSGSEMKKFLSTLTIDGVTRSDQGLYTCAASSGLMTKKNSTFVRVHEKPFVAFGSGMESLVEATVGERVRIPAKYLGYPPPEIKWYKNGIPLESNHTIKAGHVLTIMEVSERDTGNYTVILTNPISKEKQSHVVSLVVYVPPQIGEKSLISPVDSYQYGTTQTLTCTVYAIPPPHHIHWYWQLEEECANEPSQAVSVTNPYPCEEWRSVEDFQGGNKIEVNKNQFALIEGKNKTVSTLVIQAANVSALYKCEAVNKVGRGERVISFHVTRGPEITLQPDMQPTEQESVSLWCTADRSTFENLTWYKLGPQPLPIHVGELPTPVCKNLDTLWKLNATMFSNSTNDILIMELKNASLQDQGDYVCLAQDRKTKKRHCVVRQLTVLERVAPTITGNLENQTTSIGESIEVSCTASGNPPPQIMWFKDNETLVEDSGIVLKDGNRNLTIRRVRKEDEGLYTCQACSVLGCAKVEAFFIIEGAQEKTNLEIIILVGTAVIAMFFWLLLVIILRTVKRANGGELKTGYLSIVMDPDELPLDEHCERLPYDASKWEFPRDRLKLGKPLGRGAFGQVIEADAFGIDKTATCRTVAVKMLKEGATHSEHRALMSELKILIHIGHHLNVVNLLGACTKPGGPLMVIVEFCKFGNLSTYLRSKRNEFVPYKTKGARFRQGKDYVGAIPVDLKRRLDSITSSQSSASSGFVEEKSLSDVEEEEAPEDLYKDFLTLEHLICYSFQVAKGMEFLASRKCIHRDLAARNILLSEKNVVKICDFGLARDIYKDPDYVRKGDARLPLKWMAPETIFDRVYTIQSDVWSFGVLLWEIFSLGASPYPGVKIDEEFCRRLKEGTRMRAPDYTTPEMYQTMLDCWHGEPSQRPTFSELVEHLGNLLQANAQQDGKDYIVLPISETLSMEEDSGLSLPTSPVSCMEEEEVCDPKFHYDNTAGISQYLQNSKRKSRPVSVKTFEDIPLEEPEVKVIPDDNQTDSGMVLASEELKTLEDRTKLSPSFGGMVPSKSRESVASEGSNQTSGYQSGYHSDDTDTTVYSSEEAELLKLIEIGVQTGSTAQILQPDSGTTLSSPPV

SMILES | IC50 (VEGFR-2) [µM] | HillSlope best-fit value, VEGFR-2 (VEGFR-2) | LogIC50 best-fit value, VEGFR-2 (VEGFR-2) | IC50 (MCF-7 cell line; [1]) [µM] | IC50 (MCF-7 cell line; [2]) [µM] | IC50 (HepG2 cell line; [3]) [µM] | IC50 (HepG2 cell line; [4]) [µM] | IC50 (WI-38 cell line) [µM] | HillSlope best-fit value, WI-38 (WI-38 cell line) | LogIC50 best-fit value, WI-38 (WI-38 cell line) | IC50 (MCF-7 cell line; MTT, 24 h treatment, mean of three experiments, read-out: In vitro IC50 MCF-7) [µM] | IC50 (HepG2 cell line; MTT, 24 h treatment, mean of three experiments, read-out: In vitro IC50 HepG2) [µM] | IC50 (MCF-7 cell line; Homo sapiens, MCF7, supplement raw data, dose-response curve fit, read-out: IC50 best-fit value, MCF-7) [µM] | IC50 (HepG2 cell line; [5]) [µM]
Cc1ccc2oc(SCC(=O)Nc3ccc(C(=O)NC(C)(C)C)cc3)nc2c1 [Compound 12f, N-(Tert-butyl)-4–(2-((5-methylbenzo[d]oxazol-2-yl)thio)acetamido)benzamide] | 0.265 | -0.3283 | 2.423 Log (nM) | 22.5 ± 1.8 | 22.5 | 37 ± 3.4 | 37 |  |  |  |  |  |  | 
O=C(CSc1nc2cc(Cl)ccc2o1)Nc1ccc(C(=O)NNC(=O)c2cccc(Cl)c2)cc1 [Compound 13b, 2-((5-Chlorobenzo[d]oxazol-2-yl)thio)-N-(4–(2-(3-chlorobenzoyl)hydrazine-1-carbonyl)-phenyl)acetamide] |  |  |  | 26.3 ± 2.2 | 26.3 | 42.1 ± 3.8 | 42.1 |  |  |  |  |  |  | 
CC(C)(C)NC(=O)c1ccc(NC(=O)CSc2nc3cc(Cl)ccc3o2)cc1 [Compound 12e, N-(Tert-butyl)-4–(2-((5-chlorobenzo[d]oxazol-2-yl)thio)acetamido)benzamide] |  |  |  | 62.3 ± 5.8 | 62.2 | 71.6 ± 6.7 | 71.6 |  |  |  |  |  |  | 
COc1cccc(NC(=O)c2ccc(NC(=O)CSc3nc4cc(Cl)ccc4o3)cc2)c1 [Compound 12h, 4–(2-((5-Chlorobenzo[d]oxazol-2-yl)thio)acetamido)-N-(3-methoxyphenyl)benzamide] |  |  |  | 85.6 ± 8.2 | 85.7 | 102 ± 8.5 | 102 |  |  |  |  |  |  | 
COc1cccc(NC(=O)c2ccc(NC(=O)CSc3nc4cc(C)ccc4o3)cc2)c1 [Compound 12i, N-(3-Methoxyphenyl)-4–(2-((5-methylbenzo[d]oxazol-2-yl)thio)acetamido)benzamide] | 0.155 | -0.3818 | 2.190 Log (nM) | 28 ± 2.1 | 28 | 27.3 ± 2.2 | 27.3 | 76.8 | -0.4944 | 1.885 |  |  |  | 
Cc1ccc2oc(SCC(=O)Nc3ccc(C(=O)NC4CCCC4)cc3)nc2c1 [Compound 12c, N-Cyclopentyl-4–(2-((5-methylbenzo[d]oxazol-2-yl)thio)acetamido)benzamide] |  |  |  | 36.7 ± 3.3 | 36.7 | 74.3 ± 6.8 | 74.3 |  |  |  |  |  |  | 
COc1cccc(NC(=O)c2ccc(NC(=O)CSc3nc4ccccc4o3)cc2)c1 [Compound 12g, 4–(2-(Benzo[d]oxazol-2-ylthio)acetamido)-N-(3-methoxyphenyl)benzamide] |  |  |  | 53 ± 5.1 | 53 | 36.7 ± 2.9 | 36.6 |  |  |  |  |  |  | 
O=C(CSc1nc2ccccc2o1)Nc1ccc(C(=O)NNC(=O)c2cccc(Cl)c2)cc1 [Compound 13a, 2-(Benzo[d]oxazol-2-ylthio)-N-(4–(2-(3-chlorobenzoyl)hydrazine-1-carbonyl)phenyl)-acetamide] | 0.268 | -0.5089 | 2.428 Log (nM) |  | 32.4 |  | 25.5 |  |  |  |  |  |  | 
O=C(CSc1nc2ccccc2o1)Nc1ccc(C(=O)Nc2cccc(Cl)c2)cc1 [Compound 12j, 4–(2-(Benzo[d]oxazol-2-ylthio)acetamido)-N-(3-chlorophenyl)benzamide] |  |  |  | 50.9 | 33.6 | 33.6 | 50.9 |  |  |  | 33.6 ± 2.8 | 50.9 ± 4.6 |  | 
O=C(CSc1nc2ccccc2o1)Nc1ccc(C(=O)NC2CCCC2)cc1 [Compound 12a, 4–(2-(Benzo[d]oxazol-2-ylthio)acetamido)-N-cyclopentylbenzamide] |  |  |  | 33.3 ± 2.9 | 33.3 | 38.8 ± 3.2 | 38.8 |  |  |  |  |  |  | 
CNC(=O)c1cc(Oc2ccc(NC(=O)Nc3ccc(Cl)c(C(F)(F)F)c3)cc2)ccn1 [Sorafenib, sorafenib, reference compound] |  |  |  | 6.46 ± 0.3 | 6.46 | 5.57 ± 0.4 | 5.57 | 22.1 | -0.4247 | 1.344 |  |  | 6.46 | 5.57
O=C(CSc1nc2cc(Cl)ccc2o1)Nc1ccc(C(=O)NC2CCCC2)cc1 [Compound 12b, 4–(2-((5-Chlorobenzo[d]oxazol-2-yl)thio)acetamido)-N-cyclopentylbenzamide] |  |  |  | 77 ± 7.3 | 77.1 | 64.2 ± 6.1 | 64.1 |  |  |  |  |  |  | 
O=C(CSc1nc2cc(Cl)ccc2o1)Nc1ccc(C(=O)Nc2cccc(Cl)c2)cc1 [Compound 12k, 4–(2-((5-Chlorobenzo[d]oxazol-2-yl)thio)acetamido)-N-(3-chlorophenyl)benzamide] |  |  |  | 86.6 ± 7.8 | 86.7 | 28.4 ± 2.5 | 28.4 |  |  |  |  |  |  | 
CC(C)(C)NC(=O)c1ccc(NC(=O)CSc2nc3ccccc3o2)cc1 [Compound 12d, 4–(2-(Benzo[d]oxazol-2-ylthio)acetamido)-N-(tert-butyl)benzamide] | 0.195 | -0.4166 | 2.289 Log (nM) | 44.1 ± 3.8 | 44.1 | 23.6 ± 2.1 | 23.6 | 99.4 | -0.3751 | 1.997 |  |  |  | 
Cc1ccc2oc(SCC(=O)Nc3ccc(C(=O)NNC(=O)c4cccc(Cl)c4)cc3)nc2c1 [Compound 13c, N-(4–(2-(3-Chlorobenzoyl)hydrazine-1-carbonyl)phenyl)-2-((5-methylbenzo[d]oxazol-2-yl)thio)acetamide] |  |  |  | 53.1 ± 3.7 | 53.1 | 24.2 ± 2.1 | 24.4 |  |  |  |  |  |  | 24.4
